Measurements: paper PMC5000617, “Antiproliferative and Pro-Apoptotic Effect of Novel Nitro-Substituted Hydroxynaphthanilides on Human Cancer Cell Lines” (International Journal of Molecular Sciences, 2016)

How the values were obtained:
THP-1 cells [1] = experiment: Flow cytometric cell cycle analysis (PI), THP-1; assay type: cell-based, human
Protocol: (§1) In order to determine at which stage of the cell cycle these compounds induce cell growth inhibition, flow cytometric analyses of cell cycle profiles in THP-1 and MCF-7 cell lines were performed. […] Therefore, THP-1 and MCF-7 cells were treated for 24 h with the compounds at concentrations of 2.5, 5, and 10 μM, respectively. In general, we detected a qualitatively similar effect on the distribution of cells in cell cycle phases following the treatment with compounds 2 and 6 in both leukaemia and breast carcinoma cells. […] This was in concert with a simultaneous decrease in the number of cells observed in the S phase compared to the drug-free control, while the percentage of cells in the G2/M phase remained unchanged.
(§2) THP-1 and sub-confluent MCF-7 cells were treated and subsequently incubated with indicated concentrations of compounds 2 and 6 for 24 h. After the incubation, cells were washed twice in PBS (pH 7.4), fixed in 70% ethanol and stored at −20 °C overnight. Fixed cells were collected by centrifugation, and supernatant was discarded. The cell pellet was washed twice with PBS and incubated with RNaseA (0.02 mg/mL) and 0.05% (v/v) Triton X-100 in PBS for 30 min at 37 °C. After the nuclei staining with propidium iodide (PI) (0.04 mg/mL), the cell cycle distribution was analysed using a flow cytometer Cell Lab Quanta SC (Beckman Coulter, Brea, CA, USA). The quantification of cell cycle distribution was carried out using software MultiCycle AV (Phoenix Flow System, San Diego, CA, USA). A total number of 2 × 10^4 cells was analysed per sample.

MCF-7 cells [2] = experiment: Erythrosin B dye exclusion viability test, MCF-7; assay type: cell-based; settings: MCF-7, 24 h, vs control
Protocol: (§3) Subsequently, for the comparison of the antiproliferative and cytotoxic effects we assessed the cell viability after 24 h treatment with compounds 1–6 in both tumour cell lines using the dye exclusion test.
(§4) THP-1 human monocytic leukemia cell line, MCF-7 human breast adenocarcinoma cells and 3T3-L1 mouse embryonic fibroblast were purchased from the European Collection of Cell Cultures (ECACC, Salisbury, UK). Cells were routinely tested for the absence of mycoplasma (Hoechst 33258 staining method). THP-1 cells were maintained in RPMI 1640 culture medium containing 2 mM L-glutamine; MCF-7 and 3T3-L1 cells were cultured in DMEM medium. All of the culture media were supplemented with 10% heat-inactivated FBS and antibiotics (100 U/mL penicillin and 100 μg/mL streptomycin). Cells were maintained at 37 °C in a humidified atmosphere containing 5% CO2.
(§5) Cell proliferation was evaluated using Cell Proliferation Reagent WST-1 (2-(4-iodophenyl)-3-(4-nitrophenyl)-5-(2,4-disulfophenyl)-2H-tetrazolium) (Roche Diagnostics, Mannheim, Germany) according to the manufacturer´s instructions. THP-1 (5 × 10^4 cells/100 μL culture medium per well), MCF-7 cells (1 × 10^4 cells/100 μL per well), and 3T3-L1 (2.5 × 10^3 cells/100 μL per well) were cultured in 96-well plates in triplicate. The measurement was performed using Synergy 2 Multi-Mode Microplate Reader (BioTek, Winooski, VT, USA) after 24 h incubation of cells with tested compounds dissolved in DMSO and subsequently in RPMI 1640 to final concentration ranging 0.5–20 μM in the assays. Cell viability was assessed by dye exclusion test. THP-1 (2 × 10^5 cells/mL per well) and MCF-7 cells (8 × 10^4 cells/mL per well) were incubated in 24-well plates with the indicated concentrations of compounds for 24 h. The number of viable cells was determined using hemocytometer after their staining with a solution of erythrosin B (0.1% erythrosin B (w/v) in PBS). The assays were conducted in triplicate. The IC50 and LC50 values were calculated from fitted concentration-response curves using GraphPad Prism 5.00 software (GraphPad Software, San Diego, CA, USA).

[3] = Erythrosin B dye exclusion viability test, MCF-7; assay type: cell-based; settings: human, MCF-7 cells; erythrosin B exclusion test, 24 h, mean ± SD; read-out: MCF-7 LC50
Protocol: as §3, §4, §5

caspase 3 = experiment: Western blot of caspase 3 in THP-1 cells; assay type: cell-based, human; settings: THP-1, 10 μM, 24 h
Protocol: (§6) Most of the apoptotic signalling pathways are controlled by caspases that belong to a group of cysteine proteases. To assess whether compound 2 affects these signalling cascades and which pathway is activated (intrinsic or extrinsic), the activities of caspase 3, caspase 9, and caspase 8 were evaluated using Western blot analysis.
(§7) For Western blotting, cells were washed with PBS and lysed in lysis buffer (100 mM Tris-HCl, pH = 6.8; 20% glycerol; 1% SDS) containing protease and phosphatase inhibitor cocktails. Protein concentration was measured using Roti®-Quant universal (Carl Roth, Karsruhe, Germany) according to the manufacturer’s instructions. Cell lysates were supplemented with bromophenol blue (final concentration 0.01% (w/v)) and β-mercaptoethanol (final concentration 1% (v/v)) prior to being heated for 5 min at 95 °C. Equal amounts of protein (10 μg) were loaded into a 12% polyacrylamide gel, separated by SDS-polyacrylamide gel electrophoresis and subsequently electrotransferred onto nitrocellulose membranes. Reversible Ponceau S. staining was performed to assess equal sample loading. […] The intensity of bands was semi-quantitatively analysed using the ImageJ software (National Institute of Mental Health, Bethesda, MD, USA).

MCF-7 cells [4] = experiment: Flow cytometric cell cycle analysis (PI), MCF-7; assay type: cell-based, human; settings: MCF-7, 24 h
Protocol: as §1, §2

caspase 9 = experiment: Western blot of caspase 9 in THP-1 cells; assay type: cell-based, human; settings: THP-1, 24 h, most pronounced at 10 μM
Protocol: as §6, §7

THP-1 cells [5] = experiment: WST-1 cell proliferation assay, THP-1; assay type: cell-based, human
Protocol: Initially, we examined the effect of six nitro-substituted hydroxynaphthanilides on the proliferation of human leukaemia and breast carcinoma cell lines, using Water Soluble Tetrazolium Salts-1 (WST-1) assay. For such analyses, THP-1 and MCF-7 cells were treated with the compounds at concentrations ranging from 0.5 to 20 μM for 24 h. […] The inhibitory effect of 2 and 6 was statistically significant (p < 0.001) starting from the concentration of 2.5 and 5 μM in THP-1 and MCF-7 cells, respectively. From the concentration-response curves, the IC50 values were determined.
as §4, §5

caspase 8 = experiment: Western blot of caspase 8 in THP-1 cells; assay type: cell-based, human; settings: THP-1, 24 h
Protocol: as §6, §7

O=C(Nc1cccc([N+](=O)[O-])c1)c1cc2ccccc2cc1O [Compound 2, 3-hydroxy-N-(3-nitrophenyl)naphthalene-2-carboxamide]
increase of sub-G1 peak compared to drug-free control (THP-1 cells [1]; THP-1, 5 µM, 24 h, p < 0.001): approximately eight-fold | distribution of cells in cell cycle phases (THP-1 cells [1]; THP-1, 24 h): induced accumulation of cells in G1 phase | effect on cell viability (MCF-7 cells [2]): Neither compound 2 nor 6 reduced cell viability under 50% | CC50 at 24 h [3]: > 20 µM | decrease of pro-caspase 3 (inactive form) compared to control (caspase 3): approximately two-fold | increase of active caspase 3 level in comparison to control (caspase 3): approximately two-fold | distribution of cells in cell cycle phases (MCF-7 cells [4]): induced accumulation of cells in G1 phase | sub-G1 / sub-diploid population (MCF-7 cells [4]): did not induce any elevation of the sub-G1 peak | cleaved caspase 9 levels (caspase 9): significant increase of cleaved caspase 9 levels | IC50 (THP-1 cells [5]; Homo sapiens, THP-1, WST-1, 24 h, 0.5-20 μM, mean ± SD): 3.06 ± 0.206 µM | effect on cell proliferation (THP-1 cells [5]; THP-1, 0.5-20 μM, 24 h): inhibit cell growth in both cell lines in a dose-dependent manner | concentration from which the inhibitory effect on proliferation was statistically significant (p < 0.001) (THP-1 cells [5]; THP-1, 24 h): 2.5 µM | level of active caspase 8 (caspase 8): level of active caspase 8 was not altered
